# According to patent publication US8053477B2, “Inhibitors of the S100-p53 protein-protein interaction and method of inhibiting cancer employing the same” (University of Maryland, Baltimore, priority 2002, dated 2011):
# Substitutions are numbered along the chain they refer to. Where two headings read alike, the source gives them in different places. Where no end group is shown, it is not given here.
# How the values were obtained:
# [1] = test system: C8146A melanoma cells; test: siRNA transfection of C8146A melanoma cells, Western blots of S100B, p53, p21; type: cell-based, human; conditions: siRNA 2.0, 20 nM; harvested 24 hrs after transfection
# Method: The small interfering RNA (siRNA) used consisted of […] (nt) double-stranded RNA, which was synthesized by Xeragon Inc. (Huntsville, Ala.). The sequence of the siRNA, i.e., 5′-ACUACUGCCUGCCACGAGUUC-3 (SEQ ID NO:6), corresponds to the S100β C-terminal end (nt 244-265) plus two dT 3′ overhang.
# Different concentrations of siRNA (2.0, 20 nM) were added to the cells along with 2.0 μg of pCMV.3 empty vector (Stratagene, La Jolla, Calif.). The siRNA was transfected in C8146A melanoma cells using FuGENE reagent (Roche Molecular Biochemicals, Indianapolis, Ind.) according to the manufacturer's recommendation. The cells were harvested 24 hrs later and analyzed by Western blots as described above.
# [2] = test system: primary malignant melanoma cells (C8146A and HTB 64); test: Growth of primary malignant melanoma cells (cell counting after 13 days); type: cell-based; conditions: Homo sapiens
# Method: (§1) The effect that compounds have on the growth of primary malignant melanoma cells (cell lines: C8146A and HTB 64) and normal melanocytes (Cell Applications Inc. 104-05 from neonatal foreskin) were measured. […] The growth inhibition constants (IC50 values) results from other compounds are listed above. In these studies, typically ˜10,000 cells were distributed evenly across T25 vials. One day later, new media with or without the small molecule (2.5 μM or 25 μM) was added, and the cells were allowed to grow for an additional 13 days. Because some molecules were delivered in DMSO, the effect of DMSO (0.1-0.2% (v/v)) on cell growth was also checked and found to have no effect at these levels (FIG. 13). At this point, the cells were washed in phosphate buffer saline (PBS), harvested by treatment with trypsin, and placed in F10 media with 5.0% (v/v) fetal bovine serum (FBS), 5.0% (v/v) newborn calf serum (NCS), and 2.0% (w/v) penicillin/streptomycin. The cells were counted with a hemocytometer in quadruplicate trials.
# [3] = target: T1, S100B (UniProt P04631); test: Fluorescence binding / competition titrations of small molecules to S100B
# T1 sequence (P04631 1-92): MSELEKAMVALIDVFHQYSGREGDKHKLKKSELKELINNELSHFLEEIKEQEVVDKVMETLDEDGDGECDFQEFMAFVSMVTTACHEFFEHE
# Method: (§2) Inhibition of binding of S100 proteins to p53 can be assayed by fluorescence binding/competition assays. For example, binding to S100B is monitored using fluorescent peptides such as the F43W p53 peptide ([…] (SEQ ID NO:1)) or the TRTK-12 peptide ([…] (SEQ ID NO:2)) that both contain fluorescent tryptophan residues (see Example 7). In such an assay, the binding of the peptide is monitored by changes in its fluorescence intensity at 350-370 nm in the presence of 10-20 mM calcium chloride (pH 7.4). Displacement of the peptide by the test compound is then monitored by a corresponding decrease in fluorescence intensity and the dissociation constant of the test compound from S100B is calculated using a standard competition equation (KD=Kapp/(1+[floursecent peptide]/KD peptide). The amino acid residues on S100B to which the test compound binds can then monitored by chemical shift perturbations using NMR spectroscopy.
# The binding of the small molecules to S100B identified in the CADD search were measured using fluorescence spectroscopy. The compounds identified are as follows:
# Compounds that fluorescent (i.e., for Compounds 9, 31 and 33) were measured by a direct binding assay to S100B via fluorescence intensity changes. […] First, changes in tyrosine fluorescence (for Tyr-17 of S100B) were sufficient in some cases to evaluate binding (Rustandi et al (1998), supra; and Szabo et al, FEBS Lett., 94:249-252 (1978)). However, to circumvent problems associated with the low quantum yield of the tyrosine residue, the F43W mutant of S100B was used (FIG. 12A), and then competition studies were done with wild-type S100B (FIG. 12B). In this S100B construct (in F43W S100B), the tryptophan residue is located in the target protein binding site, so the emission of the tryptophan mutant was measured in a straightforward manner at 338 nm as a function of adding compound. This F43W mutant has similar structure, Ca^2+-binding and target binding properties of wild-type S100B. Another approach was to bind a fluorescent probe to wild-type S100B and do competition binding assays with the compound. […] Steady state experiments to determine binding constants were performed on Aminco Bowman Series 2 Luminescence Spectrophotofluorometer with the temperature of the cell (quartz cuvettes) maintained at 25° C. Two internal controls were performed in all titrations. EGTA was added to S100B to chelate the calcium and determine whether the interaction with the drug requires the Ca^2+-dependent conformational change observed for a number of protein targets (Weber et al, supra). In addition, the titrations were performed in the absence of calcium as a control. All compounds with fluorescence emission spectra were also routinely evaluated for photobleaching before proceeding. Buffers were also checked routinely for any contaminants that may fluoresce.
# [4] = target: T2, holo-S100B (Homo sapiens, UniProt P04271); test: NMR mapping of binding interface (HSQC chemical shift perturbation, STD); conditions: 37° C.
# T2 construct: made in house
# T2 sequence (P04271 1-92): T1 sequence (P04631 1-92) with E63N, S79A
# Method: NMR spectroscopy experiments were carried out to determine what amino acid residues of S100B and the small molecule are interacting (FIG. 14). Resonances of S100B that interact with the small molecules were identified by titrating compounds into holo-S100B and monitoring perturbations in chemical shifts of backbone amide-proton correlations in a ^15N-edited HSQC spectrum (Mori et al, J. Magnetic Resonance, B108:94-98 (1995)). […] An example of mapping the Compound-S100B interface is provided in FIGS. 14A-14C for the interaction between holo-S100B and Compound 4. […] These residues are highlighted red in FIG. 14C for titrations with Compound 4. Resonance assignments of S100B bound to the small molecules were confirmed using a 3D NOESY-HSQC experiment, and the backbone and sidechain chemical shifts of Ca^+2-loaded S100B and S100B bound to p53 peptide as described by Drohat et al (1998), supra; Rustadni et al (2000), supra; and Rustadni et al (1998), supra, were also helpful in the assignment procedure. Regions of the inhibitors that interact with S100B were identified using epitope mapping via saturation transfer difference experiments (STDs) as described by Mayer et al, J. Am. Chem. Soc., 123:6108-6117 (2001). In FIG. 14A, protons of the compound that are proximal to S100B are indicated by arrows. […]
# [5] = test system: normal melanocytes (neonatal foreskin); test: Growth of normal melanocytes (cell counting); type: cell-based; conditions: compared with melanoma cells
# Method: as §1
# [6] = target: T1, S100B; test: Fluorescence binding / competition titrations of small molecules to S100B; parameters: rows headed: KD of fluorescent probe peptide for S100B; conditions: read-out: KD of fluorescent probe peptide for S100B; probes used in competition studies with wild-type S100B
# Method: as §2
# The binding of the small molecules to S100B identified in the CADD search were measured using fluorescence spectroscopy. […]
# Compounds that fluorescent (i.e., for Compounds 9, 31 and 33) were measured by a direct binding assay to S100B via fluorescence intensity changes. […] First, changes in tyrosine fluorescence (for Tyr-17 of S100B) were sufficient in some cases to evaluate binding (Rustandi et al (1998), supra; and Szabo et al, FEBS Lett., 94:249-252 (1978)). […]
# [7] = test system: MCF-7; test: Bleomycin treatment of MCF-7 cells, Western blots of p53, mdm2, p21; type: cell-based, human; conditions: MCF-7, wild type p53; FIG. 6B lane 2
# Text: Next, it was explored whether S100B could interact with endogenous p53 and affect the expression of mdm2 and p21. The human breast cancer cell line MCF-7, which has a wild type p53 genotype (Kastan et al, Cell, 71:587-597 (1992)), was transiently transfected with S100B. After S100B transfection, the cells were either treated (or not) with the x-ray mimic agent bleomycin to induce endogenous p53 production.
# [8] = 312 h, primary malignant melanoma cells, screened at 2.5 μM or 25 μM, 13 days, read-out: IC50 (growth inhibition constant)
# [9] = direct fluorescence, F43W S100B or peptide-probe competition, 25° C., calcium present, read-out: Kd (binding to S100B, fluorescence spectroscopy)
compound,measurement,setting,value
5′-ACUACUGCCUGCCACGAGUUC-3 [siS100B],increase in p53 levels,[1],2.3 fold
same,lowering of S100B levels,[1],3 fold
same,up-regulation of p21 protein levels,[1],2.6 fold
"O=C(COc1ccc(C(F)(F)F)c[n+]1[O-])c1cccc([N+](=O)[O-])c1 [Compound 1, 2-[2-(3-nitrophenyl)-2-oxoethoxy]-5-(tri-fluoromethyl)pyridinium-1-olate]",IC50,[2]; [8],2.5 µM
same,Kd,[3]; [9],2.7 µM
"N=C(N)NC(=N)Nc1cccc(Cl)c1Cl [Compound 3, {[(2,3,dichloroanilino)(imino)methyl]amino}methanimidamide]",IC50,"[2]; primary malignant melanoma cells, read-out: IC50 (growth inhibition constant), unit inferred",< 2.5 µM
"Cc1c(NS(=O)(=O)c2ccc(NC(=O)CCC(=O)O)cc2)c(=O)n(-c2ccccc2)n1C [Compound 4, 4-(4-{[(1,5-dimethyl-3-oxo-2-phenyl-2,3,dihydro-1H-pyrazol-4-yl)amino]sulfonyl}anilino)-4-oxo butanoic acid]",binding site on S100B by NMR,[4],interacts with the C-terminus of S100B (loop 4) and another region of S100B (loop 2)
same,Kd,[3]; [9],2 µM
"N=C(N)NC(=N)Nc1ccc(Cl)cc1C(=O)c1ccccc1 [Compound 9, {[(2-benzoyl-4-chloroanilino)(imino)methyl]amino}methanimidamide]",Kd,[3]; [9],4 µM
O=C(O)c1cc(N/N=C/c2ccc(-c3ccc(Cl)c(C(=O)O)c3)o2)ccc1Cl [Compound 31],IC50,[2]; [8],~25 µM
same,Kd,[3]; [9],~6 µM
"COc1cc(C2Nc3ccccc3-c3nc(SC)nnc3O2)ccc1OCC(=O)O (stereo not drawn) [Compound 33, 1,2-(3-methylthiotraizine),3,4-phenyl,6-[(2-methoxyphenoxy)Acetic Acid]morpholine]",IC50,[2]; [8],~25 µM
"CC(C)(C)NC(=O)c1cccc(N2C(=O)c3ccc(C(=O)O)cc3C2=O)c1 [Compound 44, 2-(3-tert-Butylcarbamoyl-phenyl)-1,3-dioxo-2,3-dihydro-1H-isoindole-5-carboxylic acid]",Kd,[3]; [9],~24 µM
"COc1cccc(N2C(=O)c3ccc(C(=O)Nc4cc(C(=O)O)cc(C(=O)O)c4)cc3C2=O)c1 [Compound 45, 5-{[2-(3-Methoxy-phenyl)-1,3-dioxo-2,3-dihydro-1H-isoindole-5-carbonyl]-amino}-isophthalic acid]",Kd,[3]; [9],~12 µM
"N=C(N)c1ccc(OCCCCCOc2ccc(C(=N)N)cc2)cc1 [pentamidine, reference compound]",binding site on S100B by NMR,[4],in the p53 binding site
same,IC50,"[2]; primary malignant melanoma cells (C8146A), read-out: IC50 for inhibition of cell growth",~0.5 µM
same,Kd,[3]; [9],1.4 µM
same,Kd,"[3]; read-out: binding constant (KD) between wild-type holo-S100B and pentamidine, competition of pentamidine bound to F43W S100B with wild-type S100B",0.7 µM
same,"effect on normal melanocytes, in words",[5],lesser effects on normal melanocytes
"SHLKSKKGQSTSRHKKLMWKTE [p53 (F385W), reference compound]",Kd,[6],3 µM
bleomycin,"basal levels of p53, mdm2 and p21, in words",[7],induced
